Marks after values point to notes of the source that are not given here.
Tested on: BCA atherosclerosis lesions in LDLr KO mice
Test: LDLr KO mouse brachiocephalic arch atherosclerosis model
Format: in vivo
Conditions: for Lesion area: 4 weeks, vehicle 50,686; for Macrophage area (brown color): vehicle 18,571; for reduction of lesion area compared to vehicle / reduction of BCA cholesteryl ester (CE) content compared to vehicle: Table 3; for Cholesteryl ester: BCA, vehicle 22.50
Description: The compound of Example 2 is tested in the low density lipoprotein (LDL) receptor knock-out (LDLr KO) mouse model of atherosclerosis. Mice deficient in the ability to encode and synthesize the LDL receptor (LDLr KO) are hypercholesterolemic, especially when maintained on high cholesterol diet, Ishibashi et al. J. Clin. Invest. (1994), 93: 1885-1893. In the large arteries, LDLr KO mice develop spontaneous atherosclerotic lesions that mimic major features of the cellular, lipid, and extracellular matrix composition of human lesions. An important constituent of both human and mouse lesions is the lipid-laden macrophage or “foam cell” in the arterial subendothelium. The esterified cholesterol stored by macrophages is a surrogate for lesion development. Assay of esterified cholesterol directly from mouse arterial tissue (by LC/MS) provides a rapid index of lesion burden. The LDLr KO model used in the present study takes advantage of the rapid development of mature atherosclerotic plaques in the brachiocephalic artery (BCA). Primary endpoints for the study are arterial cholesteryl ester content and lesion dimensions obtained by light microscopic measurement of lesions in serial cross-sections of the artery.
LDLr KO mice (JAX #002207), 7 week old males, were obtained from The Jackson Laboratory (Bar Harbor, Me.). Upon arrival at the testing facility and continuing for a total of 10 weeks, mice were housed individually and fed the atherogenic diet TD.88137 (Teklad) ad libitum. During the first 6 weeks, the mice rested undisturbed in their cages. During the last 4 weeks, the mice received the test compound twice daily by oral gavage.

CCCc1c(NC(=O)CC(C)(C)C(=O)[O-])cccc1OCCCOc1cc(O)c(-c2ccc(F)cc2)cc1CC.[Na+] [Example 2, Sodium 4-[[3-[3-[2-ethyl-4-(4-fluorophenyl)-5-hydroxy-phenoxy]propoxy]-2-propyl-phenyl]amino]-2,2-dimethyl-4-oxo-butanoate]
Lesion area (3 mg/kg BID oral gavage): 23700 µm² | Macrophage area vs. vehicle (3 mg/kg BID, p < 0.02): −65%* | Lesion area vs. vehicle (3 mg/kg BID, p < 0.049): −53%* | Cholesteryl ester vs. vehicle (3 mg/kg BID, p = NS): −8% | Macrophage area (brown color) (3 mg/kg BID): 6520 µm² | reduction of lesion area compared to vehicle (3 mg/kg b.i.d.): 53% | Lesion area (10 mg/kg BID oral gavage): 21200 µm² | Macrophage area vs. vehicle (10 mg/kg BID, p < 0.002): −84%* | Lesion area vs. vehicle (10 mg/kg BID, p < 0.034): −58%* | Cholesteryl ester vs. vehicle (10 mg/kg BID, p < 0.09): −18% | Macrophage area (brown color) (10 mg/kg BID): 2860 µm² | reduction of BCA cholesteryl ester (CE) content compared to vehicle (10 mg/kg b.i.d., p<0.09): 18% | reduction of lesion area compared to vehicle (10 mg/kg b.i.d.): 58% | Lesion area (30 mg/kg BID oral gavage): 17100 µm² | Lesion area vs. vehicle (30 mg/kg BID, p < 0.017): −66%* | Cholesteryl ester vs. vehicle (30 mg/kg BID, p < 0.04): −23%* | Macrophage area vs. vehicle (30 mg/kg BID, p < 0.09): −54% | Macrophage area (brown color) (30 mg/kg BID): 8520 µm² | reduction of BCA cholesteryl ester (CE) content compared to vehicle (30 mg/kg b.i.d., p<0.04): 23% | reduction of lesion area compared to vehicle (30 mg/kg oral b.i.d., p<0.017): 66% | Cholesteryl ester (3 mg/kg BID): 17.95 nmol | Cholesteryl ester (10 mg/kg BID): 16.97 nmol | Cholesteryl ester (30 mg/kg BID): 14.51 nmol
